Measurements from US8026359B2, “Fungicidal heterocyclic amines” (E.I. du Pont de Nemours and Company, priority 2007, dated 2011).

Key:
Type in all cases: in vivo
Rhizoctonia oryzae = test: Test J: turf brown patch, preventive spray on creeping bent grass seedlings; conditions: 200 ppm; 100 = 100% disease control, 0 = no control relative to controls
Source text: (§1) General protocol for preparing test suspensions for Tests A-R: The test compounds were first dissolved in acetone in an amount equal to 3% of the final volume and then suspended at the desired concentration (in ppm) in acetone and purified water (50/50 mix) containing 250 ppm of the surfactant Trem® 014 (polyhydric alcohol esters). The resulting test suspensions were then used in tests A-R. In Tests A-M, compounds were sprayed as a 200 ppm test suspension (equivalent to a rate of 500 g/ha) or as a 40 ppm test suspension to the point of runoff on the test plants. In Tests N-R, compounds were sprayed as a 100 g/ha test suspension (equivalent to a rate of 100 ppm) on the test plants at an application volume of 1000 L/ha. The test suspension was sprayed to the point of run-off on creeping bent grass seedlings.

Phytophthora infestans = conditions: 200 ppm; 100 = 100% disease control, 0 = no control relative to controls
Sclerotinia sclerotiorum = test: Test G: cucumber white mold, preventive spray on cucumber seedlings; conditions: 200 ppm; 100 = 100% disease control, 0 = no control relative to controls
Source text: as §1, with “cucumber” for “creeping bent grass”

[1] = tested on: Puccinia recondita f. sp. tritici; test: Test B: wheat leaf rust, preventive spray on wheat seedlings; conditions: 200 ppm, 100 = 100% disease control, 0 = no control relative to controls
How it was run: (§2)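 Two spray concentrations are used, 40 ppm and 200 ppm, the latter matching a rate of 500 g/ha, applied until run-off. The carrier is half acetone, half purified water with 250 ppm surfactant, and acetone for initial dissolution makes up 3% of the volume.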

Septoria nodorum = test: Test C: wheat glume blotch, preventive spray on wheat seedlings; conditions: 200 ppm, 100 = 100% disease control, 0 = no control relative to controls
How it was run: as §2

Botrytis cinerea = test: Test F: tomato Botrytis, preventive spray on tomato seedlings; conditions: 200 ppm, 100 = 100% disease control, 0 = no control relative to controls
How it was run: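 Preventive run-off spray onto tomato seedlings at 200 ppm (equivalent to 500 g/ha) or 40 ppm. Suspensions: compound predissolved in acetone at 3% of final volume, then taken up in acetone/purified water 50/50 containing 250 ppm Trem® 014 surfactant.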

Pythium aphanidermatum = test: Test M: bluegrass pythium blight, preventive spray on bluegrass seedlings; conditions: 200 ppm; 100 = 100% disease control, 0 = no control relative to controls
Source text: as §1, with “bluegrass” for “creeping bent grass”

Fusarium graminearum = test: whole plant or invertebrate
Septoria tritici = test: Test D: wheat leaf blotch, preventive spray on wheat seedlings; conditions: 200 ppm, 100 = 100% disease control, 0 = no control relative to controls
How it was run: as §2

[2] = tested on: Erysiphe graminis f. sp. tritici; test: Test A: wheat powdery mildew, preventive spray on wheat seedlings; conditions: 200 ppm, 100 = 100% disease control, 0 = no control relative to controls
How it was run: as §2

Plasmopara viticola = test: Test L: grape downy mildew, spray after inoculation of grape seedlings; conditions: 200 ppm; 100 = 100% disease control, 0 = no control relative to controls
Source text: as §1, with “L/ha. Grape seedlings were inoculated with a spore suspension of Plasmopara viticola (the causal agent of grape downy mildew) and incubated in a saturated atmosphere at 20° C. for 24 h. After a short drying period, the” for “L/ha. The”, “on the grape seedlings and then moved to a growth chamber at 20° C. for 6 days, after which time the test units were placed back into a saturated atmosphere at 20° C. for 24 h. Upon removal, disease ratings were made.” for “on creeping bent grass seedlings.”

[3] = tested on: Colletotrichum orbiculare; test: Test I: cucumber Colletotrichum anthracnose, preventive spray on cucumber seedlings; conditions: 100 = 100% disease control, 0 = no control relative to controls
How it was run: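 Preventive foliar spray to run-off on cucumber seedlings, at 200 ppm (stated as equal to 500 g/ha) or 40 ppm. Test suspensions were made in acetone/water 50/50 containing 250 ppm Trem 014, after first dissolving compound in acetone at 3% of final volume.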

| Structure (SMILES) | Test J disease control rating (Rhizoctonia oryzae) [%] | Test K disease control rating (Phytophthora infestans) [%] | Test G disease control rating (Sclerotinia sclerotiorum) [%] | Test B disease control rating [1] [%] | Test C disease control rating (Septoria nodorum) [%] | Test F disease control rating (Botrytis cinerea) [%] | Test M disease control rating (Pythium aphanidermatum) [%] | Test E disease control rating (Fusarium graminearum; 200 ppm, 100 = 100% disease control, 0 = no control relative to controls) [%] | Test D disease control rating (Septoria tritici) [%] | Test A disease control rating [2] [%] | Test L disease control rating (Plasmopara viticola) [%] | Test I disease control rating ([3]; 200 ppm) [%] | pest or weed control at 200 ppm ([1]; Puccinia recondita, 192 h, read-out: Test B disease control rating) [%] | pest or weed control at 200 ppm (Septoria nodorum; Parastagonospora nodorum, 216 h, read-out: Test C disease control rating) [%] | pest or weed control at 200 ppm (Botrytis cinerea; Botrytis cinerea, 120 h, read-out: Test F disease control rating) [%] | pest or weed control at 200 ppm (Fusarium graminearum; Fusarium graminearum, in Triticum aestivum, 192 h, read-out: Test E disease control rating) [%] | pest or weed control at 200 ppm (Septoria tritici; Zymoseptoria tritici, 504 h, read-out: Test D disease control rating) [%] | pest or weed control at 200 ppm ([2]; Blumeria graminis, 192 h, read-out: Test A disease control rating) [%] | pest or weed control at 200 ppm ([3]; Colletotrichum orbiculare, 144 h, read-out: Test I disease control rating) [%] |
| --- | --- | --- | --- | --- | --- | --- | --- | --- | --- | --- | --- | --- | --- | --- | --- | --- | --- | --- | --- |
| COCC(C)Nc1nccc(-c2ccnc(Nc3cccc(F)c3)c2)n1 (stereo not drawn) [Compound 41] | 34 | 0 | 94 | 98 | 99 | 96 | 0 | 45 | 15 | 57 | 0 | 54 | – | – | – | – | – | – | – |
| COCC(C)Nc1nccc(-c2ccnc(Nc3cccc(Cl)c3)c2)n1 (stereo not drawn) [Compound 40, 4-[2-[(3-chlorophenyl)amino]-4-pyridinyl]-N-(2-methoxy-1-methylethyl)-2-pyrimidinamine] | 0 | 0 | 83 | – | – | – | 0 | – | – | – | 0 | – | 90 | 99 | 99 | 48 | 27 | 63 | 84 |
